Values after ≈ are worked out from the molar mass of the structure shown.
System: P388
Experiment: Cytotoxicity against mouse P388 cells
Type: functional
Details: read-out: ED50 (the source's name)

CC(=O)C1=CC[C@H]2C3=CCC4=C[C@@H](O)[C@H](O)C[C@]4(C)[C@H]3C[C@@H](O)[C@]12C [STIZOPHYLLIN]
EC50: 0.07 µg/mL (≈ 0.203 µM)

Reference: ChEMBL document CHEMBL1150705, “Plant anticancer agents XLIV. Cytotoxic constituents from Stizophyllum riparium” (1987)
